Experimental data taken from ChEMBL document CHEMBL4706653, “Ultra-short lipopeptides against gram-positive bacteria while alleviating antimicrobial resistance” (Eur J Med Chem, 2021).
In brackets after ≈: the same amount, converted by molar mass. Residues, ends and D or L forms follow the SMILES beside them. *: point of attachment. Myristoyl = CCCCCCCCCCCCCC(=O)*; Lauroyl = CCCCCCCCCCCC(=O)*; Decanoyl = CCCCCCCCCC(=O)*; Octanoyl = CCCCCCCC(=O)*

Key:
Staphylococcus aureus [1] = test: Antimicrobial activity against Staphylococcus aureus ATCC 25923 after 18 hrs by broth microdilution method; type: functional
[2] = system: Staphylococcus epidermidis; test: Antimicrobial activity against Staphylococcus epidermidis ATCC 12228 after 18 hrs by broth microdilution method; type: functional
[3] = Therapeutic index, ratio of MHC for mouse RBC to geometric mean of peptide MIC for Staphylococcus epidermidis ATCC 12228; type: toxicity; details: pooled result: one value given for 6 cell lines, strains, targets or settings, read-out: TI
Bacillus subtilis = test: Antimicrobial activity against Bacillus subtilis ATCC 23857 after 18 hrs by broth microdilution method; type: functional
Staphylococcus aureus [4] = test: Antimicrobial activity against Staphylococcus aureus ATCC 29213 after 18 hrs by broth microdilution method; type: functional
Staphylococcus aureus [5] = test: Antimicrobial activity against methicillin-resistant Staphylococcus aureus 113 after 18 hrs by broth microdilution method; type: functional
Staphylococcus aureus [6] = test: Antimicrobial activity against methicillin-resistant Staphylococcus aureus 75 after 18 hrs by broth microdilution method; type: functional
Erythrocyte = test: Hemolytic activity against mouse erythrocytes measured after 1 hr; type: ADME, cell-based

SMILES | MIC (Staphylococcus aureus [1]) [µM] | MIC [2] [µM] | selectivity ratio [3] | MIC (Bacillus subtilis) [µM] | MIC (Staphylococcus aureus [4]) [µM] | MIC (Staphylococcus aureus [5]) [µM] | MIC (Staphylococcus aureus [6]) [µM] | MHC10 (Erythrocyte) [µM]
CCCCCCCCCC(=O)N[C@@H](CCCNC(=N)N)C(=O)N[C@@H](CCCNC(=N)N)C(=O)N[C@@H](CCCNC(=N)N)C(N)=O (Decanoyl-Arg-Arg-Arg-NH2) | 128 (≈ 81.9 µg/mL) | 64 (≈ 41 µg/mL) | 5.05 | 32 (≈ 20.5 µg/mL) | 128 (≈ 81.9 µg/mL) | 128 (≈ 81.9 µg/mL) | 128 (≈ 81.9 µg/mL) | > 256
CCCCCCCCCC(=O)N[C@@H](CCCNC(=N)N)C(=O)N[C@@H](CCCNC(=N)N)C(=O)N[C@@H](Cc1c[nH]c2ccccc12)C(N)=O (Decanoyl-Arg-Arg-Trp-NH2) | 32 (≈ 21.4 µg/mL) | 16 (≈ 10.7 µg/mL) | 32 | 8 (≈ 5.36 µg/mL) | 16 (≈ 10.7 µg/mL) | 8 (≈ 5.36 µg/mL) | 16 (≈ 10.7 µg/mL) | > 256
CCCCCCCCCC(=O)N[C@@H](CCCNC(=N)N)C(=O)N[C@@H](Cc1c[nH]c2ccccc12)C(=O)N[C@@H](CCCNC(=N)N)C(N)=O (Decanoyl-Arg-Trp-Arg-NH2) | 16 (≈ 10.7 µg/mL) | 16 (≈ 10.7 µg/mL) | 3.43 | 16 (≈ 10.7 µg/mL) | 32 (≈ 21.4 µg/mL) | 16 (≈ 10.7 µg/mL) | 16 (≈ 10.7 µg/mL) | > 256
CCCCCCCCCC(=O)N[C@@H](CCCNC(=N)N)C(=O)N[C@@H](Cc1c[nH]c2ccccc12)C(=O)N[C@@H](Cc1c[nH]c2ccccc12)C(N)=O (Decanoyl-Arg-Trp-Trp-NH2) | 32 (≈ 22.4 µg/mL) | 32 (≈ 22.4 µg/mL) | 27.4 | 16 (≈ 11.2 µg/mL) | 16 (≈ 11.2 µg/mL) | 8 (≈ 5.6 µg/mL) | 8 (≈ 5.6 µg/mL) | > 256
CCCCCCCCCC(=O)N[C@@H](Cc1c[nH]c2ccccc12)C(=O)N[C@@H](CCCNC(=N)N)C(=O)N[C@@H](CCCNC(=N)N)C(N)=O (Decanoyl-Trp-Arg-Arg-NH2) | 8 (≈ 5.36 µg/mL) | 8 (≈ 5.36 µg/mL) | 21.3 | 8 (≈ 5.36 µg/mL) | 16 (≈ 10.7 µg/mL) | 16 (≈ 10.7 µg/mL) | 16 (≈ 10.7 µg/mL) | 256
CCCCCCCCCCCC(=O)N[C@@H](CCCNC(=N)N)C(=O)N[C@@H](CCCNC(=N)N)C(=O)N[C@@H](CCCNC(=N)N)C(N)=O (Lauroyl-Arg-Arg-Arg-NH2) | 32 (≈ 21.4 µg/mL) | 16 (≈ 10.7 µg/mL) | 25.6 | 8 (≈ 5.34 µg/mL) | 16 (≈ 10.7 µg/mL) | 16 (≈ 10.7 µg/mL) | 32 (≈ 21.4 µg/mL) | > 256
CCCCCCCCCCCC(=O)N[C@@H](CCCNC(=N)N)C(=O)N[C@@H](Cc1c[nH]c2ccccc12)C(=O)N[C@@H](CCCNC(=N)N)C(N)=O (Lauroyl-Arg-Trp-Arg-NH2) | 16 (≈ 11.2 µg/mL) | 8 (≈ 5.58 µg/mL) | 8 | 8 (≈ 5.58 µg/mL) | 8 (≈ 5.58 µg/mL) | 4 (≈ 2.79 µg/mL) | 4 (≈ 2.79 µg/mL) | 64
CCCCCCCCCCCC(=O)N[C@@H](CCCNC(=N)N)C(=O)N[C@@H](Cc1c[nH]c2ccccc12)C(=O)N[C@@H](Cc1c[nH]c2ccccc12)C(N)=O (Lauroyl-Arg-Trp-Trp-NH2) | 32 (≈ 23.3 µg/mL) | 64 (≈ 46.6 µg/mL) | 12.8 | 64 (≈ 46.6 µg/mL) | 64 (≈ 46.6 µg/mL) | 8 (≈ 5.82 µg/mL) | 8 (≈ 5.82 µg/mL) | > 256
CCCCCCCCCCCC(=O)N[C@@H](Cc1c[nH]c2ccccc12)C(=O)N[C@@H](CCCNC(=N)N)C(=O)N[C@@H](CCCNC(=N)N)C(N)=O (Lauroyl-Trp-Arg-Arg-NH2) | 8 (≈ 5.58 µg/mL) | 8 (≈ 5.58 µg/mL) | 8.73 | 8 (≈ 5.58 µg/mL) | 8 (≈ 5.58 µg/mL) | 4 (≈ 2.79 µg/mL) | 8 (≈ 5.58 µg/mL) | 64
CCCCCCCCCCCCCC(=O)N[C@@H](CCCNC(=N)N)C(=O)N[C@@H](CCCNC(=N)N)C(=O)N[C@@H](CCCNC(=N)N)C(N)=O (Myristoyl-Arg-Arg-Arg-NH2) | 16 (≈ 11.1 µg/mL) | 8 (≈ 5.57 µg/mL) | 6.86 | 8 (≈ 5.57 µg/mL) | 64 (≈ 44.5 µg/mL) | 8 (≈ 5.57 µg/mL) | 8 (≈ 5.57 µg/mL) | 128
CCCCCCCCCCCCCC(=O)N[C@@H](CCCNC(=N)N)C(=O)N[C@@H](CCCNC(=N)N)C(=O)N[C@@H](Cc1c[nH]c2ccccc12)C(N)=O (Myristoyl-Arg-Arg-Trp-NH2) | 8 (≈ 5.81 µg/mL) | 8 (≈ 5.81 µg/mL) | 6 | 8 (≈ 5.81 µg/mL) | 4 (≈ 2.9 µg/mL) | 2 (≈ 1.45 µg/mL) | 2 (≈ 1.45 µg/mL) | 32
CCCCCCCCCCCCCC(=O)N[C@@H](CCCNC(=N)N)C(=O)N[C@@H](Cc1c[nH]c2ccccc12)C(=O)N[C@@H](CCCNC(=N)N)C(N)=O (Myristoyl-Arg-Trp-Arg-NH2) | 8 (≈ 5.81 µg/mL) | 4 (≈ 2.9 µg/mL) | 10.7 | 8 (≈ 5.81 µg/mL) | 8 (≈ 5.81 µg/mL) | 4 (≈ 2.9 µg/mL) | 4 (≈ 2.9 µg/mL) | 64
CCCCCCCCCCCCCC(=O)N[C@@H](Cc1c[nH]c2ccccc12)C(=O)N[C@@H](CCCNC(=N)N)C(=O)N[C@@H](CCCNC(=N)N)C(N)=O (Myristoyl-Trp-Arg-Arg-NH2) | 8 (≈ 5.81 µg/mL) | 4 (≈ 2.9 µg/mL) | 13.7 | 4 (≈ 2.9 µg/mL) | 8 (≈ 5.81 µg/mL) | 2 (≈ 1.45 µg/mL) | 2 (≈ 1.45 µg/mL) | 64
CCCCCCCC(=O)N[C@@H](CCCNC(=N)N)C(=O)N[C@@H](CCCNC(=N)N)C(=O)N[C@@H](CCCNC(=N)N)C(N)=O (Octanoyl-Arg-Arg-Arg-NH2) | > 128 | > 128 | – | > 128 | > 128 | > 128 | > 128 | > 256
CCCCCCCC(=O)N[C@@H](CCCNC(=N)N)C(=O)N[C@@H](CCCNC(=N)N)C(=O)N[C@@H](Cc1c[nH]c2ccccc12)C(N)=O (Octanoyl-Arg-Arg-Trp-NH2) | 64 (≈ 41.1 µg/mL) | 64 (≈ 41.1 µg/mL) | 7.38 | 32 (≈ 20.5 µg/mL) | 64 (≈ 41.1 µg/mL) | 128 (≈ 82.2 µg/mL) | 64 (≈ 41.1 µg/mL) | > 256
CCCCCCCC(=O)N[C@@H](CCCNC(=N)N)C(=O)N[C@@H](Cc1c[nH]c2ccccc12)C(=O)N[C@@H](CCCNC(=N)N)C(N)=O (Octanoyl-Arg-Trp-Arg-NH2) | > 128 | 128 (≈ 82.2 µg/mL) | 3.69 | 64 (≈ 41.1 µg/mL) | 128 (≈ 82.2 µg/mL) | 128 (≈ 82.2 µg/mL) | 128 (≈ 82.2 µg/mL) | > 256
CCCCCCCC(=O)N[C@@H](CCCNC(=N)N)C(=O)N[C@@H](Cc1c[nH]c2ccccc12)C(=O)N[C@@H](Cc1c[nH]c2ccccc12)C(N)=O (Octanoyl-Arg-Trp-Trp-NH2) | 16 (≈ 10.7 µg/mL) | 16 (≈ 10.7 µg/mL) | 29.5 | 16 (≈ 10.7 µg/mL) | 16 (≈ 10.7 µg/mL) | 32 (≈ 21.5 µg/mL) | 8 (≈ 5.37 µg/mL) | > 256
CN[C@H](CC(C)C)C(=O)N[C@H]1C(=O)N[C@@H](CC(N)=O)C(=O)N[C@H]2C(=O)N[C@H]3C(=O)N[C@H](C(=O)N[C@H](C(=O)O)c4cc(O)cc(O)c4-c4cc3ccc4O)[C@H](O)c3ccc(c(Cl)c3)Oc3cc2cc(c3O[C@@H]2O[C@H](CO)[C@@H](O)[C@H](O)[C@H]2O[C@H]2C[C@](C)(N)[C@H](O)[C@H](C)O2)Oc2ccc(cc2Cl)[C@H]1O [VANCOMYCIN] | < 1 | < 1 | – | < 1 | < 1 | < 1 | < 1 | –
